Experimental data from patent publication US20250163057A1, “DCN-1 MODULATING COMPOUNDS AND METHODS OF USE THEREOF” (Cellarity, Inc., priority 2023, published 2025).
Where two headings read alike, the source gives them in different places.

Tests used:
[1] = biological target: DCN1 (DCUND1) protein PONY domain (Homo sapiens (Human), UniProt Q96GG9); assay: TR-FRET assay, DCN1 binding with FAM-labeled probe
Summary of the method: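 Biotinylated DCN1 PONY domain, labeled with streptavidin-Tb, was competed against a FAM-labeled non-covalent DCN1 inhibitor probe in buffer with TritonX and 200 mM NaCl. Conditions were 5 nM DCN1 with 20 nM FAM-probe, or 0.31 nM DCN1 with 100 nM FAM-plus 800 nM unlabeled probe. The TR-FRET ratio was read at 1, 5 and 24 h (0.1% DMSO).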

DCN1 protein = DCN1 protein (Homo sapiens (Human), UniProt Q96GG9); assay: Intact Protein MS Analysis with the RapidFire-TOF System (covalent adduct formation); type: binding; details: MS Emax; 400 nM DCN1, 3 hours at room temperature
Description: An MS assay was performed to evaluate the ability of the compounds to covalently modify DCN-1.
DCN1 protein, His-TEV-DCN1, were expressed in E. Coli. The His-tagged protein was first purified with an Ni-NTA column. The His-tag was cleaved using His-tag TEV protease and the His-tags were removed using a second Ni-NTA column. Protein purity was verified with SDS-PAGE and intact MS. DCN1 was dissolved in a buffer containing 25 mM Tris-HCl, 200 mM NaCl, and 1 mM DTT at 400 nM. 11 concentrations of compounds were added to the DCN1 solution and incubated at room temperature for 3 hours, unless otherwise specified. The reaction plates were quenched by adding 0.2% formic acid. […] The cartridge was re-equilibrated with loading buffer for 1 second before collection of the next sample. The Q-TOF was operated in TOF-only positive ionization mode set to the following parameters: Gas Temp=350 C, Drying Gas=7 l/min, Nebulizer=50 psi, Sheath Gas Temp=400 C, Sheath Gas Flow=12 l/min, Vcap=4000 V, Nozzle Voltage=1000 V, Fragmentor=125 V, Skimmer=65 V and Oct 1 RF Vpp=750V. Raw MS data files were deconvoluted and analyzed using the Agilent MassHunter Bioconfirm software package to identify both parent protein and expected compound adduct mass signatures.

[2] = 24 hr after treatment with compound, read-out: TR FRET IC50 24 hr
[3] = TR FRET IC50 1 hr (nM), 1 hr after treatment with compound

Chain of DCN1 (DCUND1) protein PONY domain (Q96GG9 60-248): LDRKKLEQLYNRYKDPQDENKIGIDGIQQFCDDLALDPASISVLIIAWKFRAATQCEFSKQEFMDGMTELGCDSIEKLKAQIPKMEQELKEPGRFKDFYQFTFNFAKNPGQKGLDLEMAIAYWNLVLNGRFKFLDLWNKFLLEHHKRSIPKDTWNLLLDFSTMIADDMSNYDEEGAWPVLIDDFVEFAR
Chain of DCN1 protein (Q96GG9 whole entry): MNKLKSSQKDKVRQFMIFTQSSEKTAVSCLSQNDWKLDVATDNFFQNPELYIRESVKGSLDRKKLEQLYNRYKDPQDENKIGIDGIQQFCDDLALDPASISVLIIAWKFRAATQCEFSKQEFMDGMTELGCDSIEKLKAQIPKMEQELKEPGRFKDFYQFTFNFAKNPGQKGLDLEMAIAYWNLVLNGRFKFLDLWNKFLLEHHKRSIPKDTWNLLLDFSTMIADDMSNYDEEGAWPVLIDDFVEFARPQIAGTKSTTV

Structure (SMILES)	IC50 [1, 2] [nM]	IC50 [1, 3] [nM]	% Adduct Formation (DCN1 protein)	IC50 ([1]; read-out: TR FRET IC50 1 hr, 1 hr after treatment with compound) [nM]
C=C(C)C(=O)N[C@@H](C)c1nn(-c2ccccc2)c2c1[C@H](c1ccc(F)cc1)[C@H](NC(=O)c1cccc(C(F)(F)F)c1)C(=O)N2CC (mixture of isomers) [Compound I-16]	1000 to 3000	200 to 1000	+ (MS Emax % adduct formation greater than or equal to 0.0 and less than or equal to 30.0)	–
C/C=C/C(=O)N[C@@H](C)c1nn(-c2ccccc2)c2c1[C@H](c1ccc(F)cc1)[C@H](NC(=O)c1cccc(C(F)(F)F)c1)C(=O)N2CC (mixture of isomers) [Compound I-23]	1000 to 3000	1000 to 3000	+ (MS Emax % adduct formation greater than or equal to 0.0 and less than or equal to 30.0)	–
CCN1C(=O)[C@@H](NC(=O)c2cccc(C(F)(F)F)c2)[C@@H](c2ccc(F)cc2)c2c(C/C=C/C(=O)O)nn(-c3ccccc3)c21 (racemic) [Compound I-83, rac-(E)-4-((4R,5R)-7-ethyl-4-(4-fluorophenyl)-6-oxo-1-phenyl-5-(3-(trifluoromethyl)benzamido)-4,5,6,7-tetrahydro-1H-pyrazolo[3,4-b]pyridin-3-yl)but-2-enoic acid]	1000 to 3000	1000 to 3000	+ (MS Emax % adduct formation greater than or equal to 0.0 and less than or equal to 30.0)	–
CC#CC(=O)N(C)Cc1nn(-c2ccccc2)c2c1[C@H](c1ccc(F)cc1)[C@H](NC(=O)c1cccc(C(F)(F)F)c1)C(=O)N2CC (racemic) [Compound I-90]	> 3000	–	+ (MS Emax % adduct formation greater than or equal to 0.0 and less than or equal to 30.0)	> 3000
CCN1C(=O)[C@@H](NC(=O)c2cccc(C(F)(F)F)c2)[C@@H](c2ccc(F)cc2)c2c(C#N)nn(-c3ccccc3)c21 (racemic) [Compound I-115, rac-N-((4R,5R)-3-cyano-7-ethyl-4-(4-fluorophenyl)-6-oxo-1-phenyl-4,5,6,7-tetrahydro-1H-pyrazolo[3,4-b]pyridine-5-yl)-3-(trifluoromethyl)benzamide]	> 3000	> 3000	+ (MS Emax % adduct formation greater than or equal to 0.0 and less than or equal to 30.0)	–
C/C=C/C(=O)NCc1nn(-c2ccccc2)c2c1[C@H](c1ccc(F)cc1)[C@H](NC(=O)c1cccc(C(F)(F)F)c1)C(=O)N2CC (racemic) [Compound I-123]	200 to 1000	200 to 1000	+ (MS Emax % adduct formation greater than or equal to 0.0 and less than or equal to 30.0)	–
CC#Cc1nn(-c2ccccc2)c2c1[C@H](c1ccc(F)cc1)[C@H](NC(=O)c1cccc(C(F)(F)F)c1)C(=O)N2CC (racemic) [Compound I-225, rac-N-((4R,5R)-7-ethyl-4-(4-fluorophenyl)-6-oxo-1-phenyl-3-(prop-1-yn-1-yl)-4,5,6,7-tetrahydro-1H-pyrazolo[3,4-b]pyridine-5-yl)-3-(trifluoromethyl)benzamide]	–	–	+ (MS Emax % adduct formation greater than or equal to 0.0 and less than or equal to 30.0)	–
CCN1C(=O)[C@@H](NC(=O)c2cccc(C(F)(F)F)c2)[C@@H](c2ccc(F)cc2)c2c(CN(C)C(=O)COc3c(F)c(F)cc(F)c3F)nn(-c3ccccc3)c21 (racemic) [Compound I-228]	–	–	+ (MS Emax % adduct formation greater than or equal to 0.0 and less than or equal to 30.0)	–
CCN1C(=O)[C@@H](NC(=O)c2cccc(C(F)(F)F)c2)[C@@H](c2ccc(F)cc2)c2c(CNC(=O)CCl)nn(-c3ccccc3)c21 (racemic) [Compound I-229]	–	–	+ (MS Emax % adduct formation greater than or equal to 0.0 and less than or equal to 30.0)	–
CCN1C(=O)[C@@H](NC(=O)c2cccc(C(F)(F)F)c2)[C@@H](c2ccc(F)cc2)c2c(CNC(=O)C3=CCCC3)nn(-c3ccccc3)c21 (racemic) [Compound I-232]	–	–	+ (MS Emax % adduct formation greater than or equal to 0.0 and less than or equal to 30.0)	–
CCN1C(=O)[C@@H](NC(=O)c2cccc(C(F)(F)F)c2)[C@@H](c2ccc(F)cc2)c2c(CN(C)C(=O)C3=CCCC3)nn(-c3ccccc3)c21 (racemic) [Compound I-233]	–	–	+ (MS Emax % adduct formation greater than or equal to 0.0 and less than or equal to 30.0)	–
C/C=C/C(=O)N(C)Cc1nn(-c2ccccc2)c2c1[C@H](c1ccc(F)cc1)[C@H](NC(=O)c1cccc(C(F)(F)F)c1)C(=O)N2CC (racemic) [Compound I-234]	–	–	+ (MS Emax % adduct formation greater than or equal to 0.0 and less than or equal to 30.0)	–
C#Cc1nn(-c2ccccc2)c2c1[C@H](c1ccc(F)cc1)[C@@H](NC(=O)c1cccc(C(F)(F)F)c1)C(=O)N2CC (racemic) [Compound I-235, N-((4S,5R)-7-ethyl-3-ethynyl-4-(4-fluorophenyl)-6-oxo-1-phenyl-4,5,6,7-tetrahydro-1H-pyrazolo[3,4-b]pyridine-5-yl)-3-(trifluoromethyl)benzamide]	–	–	+ (MS Emax % adduct formation greater than or equal to 0.0 and less than or equal to 30.0)	–
C#CCNC(=O)c1nn(-c2ccccc2)c2c1[C@H](c1ccc(F)cc1)[C@H](NC(=O)c1cccc(C(F)(F)F)c1)C(=O)N2CC (racemic) [Compound I-242]	–	–	+ (MS Emax % adduct formation greater than or equal to 0.0 and less than or equal to 30.0)	–
CCN1C(=O)[C@@H](NC(=O)c2cccc(C(F)(F)F)c2)[C@@H](c2ccc(F)cc2)c2c(C3CO3)nn(-c3ccccc3)c21 (relative stereo) [Compound I-196, N-((4RS,5RS)-7-ethyl-4-(4-fluorophenyl)-3-((S*)-oxiran-2-yl)-6-oxo-1-phenyl-4,5,6,7-tetrahydro-1H-pyrazolo[3,4-b]pyridine-5-yl)-3-(trifluoromethyl)benzamide]	–	–	+ (MS Emax % adduct formation greater than or equal to 0.0 and less than or equal to 30.0)	–
CCN1C(=O)[C@H](NC(=O)c2cccc(C(F)(F)F)c2)[C@@H](c2ccc(F)cc2)c2c(C3CO3)nn(-c3ccccc3)c21 (relative stereo) [Compound I-207, N-((4RS,5SR)-7-ethyl-4-(4-fluorophenyl)-3-((S*)-oxiran-2-yl)-6-oxo-1-phenyl-4,5,6,7-tetrahydro-1H-pyrazolo[3,4-b]pyridine-5-yl)-3-(trifluoromethyl)benzamide]	–	–	+ (MS Emax % adduct formation greater than or equal to 0.0 and less than or equal to 30.0)	–
CCN1C(=O)[C@@H](NC(=O)c2cccc(C(F)(F)F)c2)[C@@H](c2ccc(F)cc2)c2c(C(=O)N(C)[C@H](C#N)CCN(C)C)nn(-c3ccccc3)c21 (relative stereo) [Compound I-303, (4S,5S)—N-[(1S*)-1-cyano-3-(dimethylamino)propyl]-7-ethyl-4-(4-fluorophenyl)-N-methyl-6-oxo-1-phenyl-5-[3-(trifluoromethyl)benzamido]-4H,5H-pyrazolo[3,4-b]pyridine-3-carboxamide]	–	–	++ (MS Emax % adduct formation greater than 30.0 and less than or equal to 80.0)	–
CCN1C(=O)[C@@H](NC(=O)c2cccc(C(F)(F)F)c2)[C@@H](c2ccc(F)cc2)c2c(CNC(=O)C(F)Cl)nn(-c3ccccc3)c21 (stereo in doubt) [Compound I-205]	–	–	+ (MS Emax % adduct formation greater than or equal to 0.0 and less than or equal to 30.0)	–
CCN1C(=O)[C@@H](NC(=O)c2cccc(C(F)(F)F)c2)[C@@H](c2ccc(F)cc2)c2c([C@@H](C)NC(=O)C(C)Cl)nn(-c3ccccc3)c21 (stereo in doubt) [Compound I-212]	–	–	+ (MS Emax % adduct formation greater than or equal to 0.0 and less than or equal to 30.0)	–
CCN1C(=O)[C@@H](NC(=O)c2cccc(C(F)(F)F)c2)[C@@H](c2ccc(F)cc2)c2c([C@@H](C)NC(=O)C(F)Cl)nn(-c3ccccc3)c21 (stereo in doubt) [Compound I-239]	–	–	+ (MS Emax % adduct formation greater than or equal to 0.0 and less than or equal to 30.0)	–
CCN1C(=O)[C@@H](NC(=O)c2cccc(C(F)(F)F)c2)[C@@H](c2ccc(F)cc2)c2c(CN(C)C(=O)C(F)Cl)nn(-c3ccccc3)c21 (stereo partly shown) [Compound I-145]	–	–	+ (MS Emax % adduct formation greater than or equal to 0.0 and less than or equal to 30.0)	–
C=C(F)C(=O)NCc1nn(-c2ccccc2)c2c1[C@H](c1ccc(F)cc1)[C@H](NC(=O)c1cccc(C(F)(F)F)c1)C(=O)N2CC [Compound I-240]	–	–	+ (MS Emax % adduct formation greater than or equal to 0.0 and less than or equal to 30.0)	–
